From ChEMBL document CHEMBL5344409, “Discovery of pan-IAP degraders via a CRBN recruiting mechanism” (2023)
Activity calls are given as the source filed them. No cut-off for these calls is given here.

Key:
[1] = target: T1, Protein cereblon/Baculoviral IAP repeat-containing protein 3 (Homo sapiens) (UniProt Q13489+Q96SW2); assay: PROTAC activity at CRBN/cIAP2 in human MCF7 cells assessed as induction of cIAP2 degradation at 0.1 uM measured after 18 hrs by western blot analysis; assay type: cell-based
T1 sequence (Q13489 whole entry, looked up): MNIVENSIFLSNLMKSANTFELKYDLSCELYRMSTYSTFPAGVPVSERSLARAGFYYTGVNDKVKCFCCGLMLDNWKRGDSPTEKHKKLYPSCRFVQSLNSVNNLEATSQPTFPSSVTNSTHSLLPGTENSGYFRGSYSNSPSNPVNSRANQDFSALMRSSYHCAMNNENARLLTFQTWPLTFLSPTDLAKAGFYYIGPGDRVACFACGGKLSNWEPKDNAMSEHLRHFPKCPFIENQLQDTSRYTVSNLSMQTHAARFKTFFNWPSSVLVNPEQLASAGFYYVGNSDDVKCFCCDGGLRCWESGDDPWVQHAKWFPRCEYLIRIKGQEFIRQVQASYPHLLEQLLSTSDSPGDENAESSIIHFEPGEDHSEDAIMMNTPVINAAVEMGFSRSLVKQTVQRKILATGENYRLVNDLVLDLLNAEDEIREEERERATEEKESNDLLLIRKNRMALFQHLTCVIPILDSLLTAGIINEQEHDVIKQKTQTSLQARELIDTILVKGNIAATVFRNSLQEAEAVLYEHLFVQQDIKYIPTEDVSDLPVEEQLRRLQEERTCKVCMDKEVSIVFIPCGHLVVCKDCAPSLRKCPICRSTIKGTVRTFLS
T1 sequence (Q96SW2 whole entry, looked up): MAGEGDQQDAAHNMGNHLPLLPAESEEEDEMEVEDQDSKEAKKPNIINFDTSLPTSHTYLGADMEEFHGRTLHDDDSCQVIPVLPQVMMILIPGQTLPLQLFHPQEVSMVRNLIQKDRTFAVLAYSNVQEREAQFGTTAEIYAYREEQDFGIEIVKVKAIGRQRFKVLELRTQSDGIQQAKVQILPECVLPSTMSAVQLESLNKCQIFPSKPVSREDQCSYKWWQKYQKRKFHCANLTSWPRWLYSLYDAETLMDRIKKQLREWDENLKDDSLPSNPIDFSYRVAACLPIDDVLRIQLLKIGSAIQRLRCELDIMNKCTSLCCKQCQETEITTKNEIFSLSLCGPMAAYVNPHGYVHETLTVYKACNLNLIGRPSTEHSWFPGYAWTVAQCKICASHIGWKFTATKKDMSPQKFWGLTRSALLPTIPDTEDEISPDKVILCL

[2] = target: Baculoviral IAP repeat-containing protein 2 (Homo sapiens) (UniProt Q13490); assay: Induction of cIAP1 degradation in human MCF7 cells at 0.1 uM measured after 18 hrs by western blot analysis; assay type: cell-based
Chain of Baculoviral IAP repeat-containing protein 2 (Homo sapiens) (Q13490 whole entry): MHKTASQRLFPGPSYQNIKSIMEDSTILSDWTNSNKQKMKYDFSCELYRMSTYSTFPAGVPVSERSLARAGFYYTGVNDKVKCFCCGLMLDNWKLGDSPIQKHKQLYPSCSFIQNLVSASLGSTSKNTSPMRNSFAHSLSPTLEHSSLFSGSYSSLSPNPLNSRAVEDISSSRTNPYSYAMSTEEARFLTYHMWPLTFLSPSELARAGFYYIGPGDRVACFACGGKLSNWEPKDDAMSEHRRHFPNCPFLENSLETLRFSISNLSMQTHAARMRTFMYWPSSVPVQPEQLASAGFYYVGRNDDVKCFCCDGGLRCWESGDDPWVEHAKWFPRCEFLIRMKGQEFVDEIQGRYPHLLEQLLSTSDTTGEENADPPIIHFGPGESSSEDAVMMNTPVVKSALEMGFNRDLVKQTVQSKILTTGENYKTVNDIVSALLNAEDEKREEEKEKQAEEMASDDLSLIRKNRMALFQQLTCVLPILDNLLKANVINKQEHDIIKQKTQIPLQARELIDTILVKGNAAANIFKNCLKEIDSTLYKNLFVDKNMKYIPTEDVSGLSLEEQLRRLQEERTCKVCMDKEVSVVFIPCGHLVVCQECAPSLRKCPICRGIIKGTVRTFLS

[3] = target: Baculoviral IAP repeat-containing protein 2 (Homo sapiens) (UniProt Q13490); assay: Induction of cIAP1 degradation in human MCF7 cells at 1 uM measured after 18 hrs by western blot analysis; assay type: cell-based
[4] = target: T1, Protein cereblon/Baculoviral IAP repeat-containing protein 3 (Homo sapiens); assay: PROTAC activity at CRBN/cIAP2 in human MCF7 cells assessed as induction of cIAP2 degradation at 0.1 to 10 uM measured after 18 hrs by western blot analysis; assay type: cell-based; details: dose 0.1-10 µM
[5] = target: T2, Protein cereblon/E3 ubiquitin-protein ligase XIAP (Homo sapiens) (UniProt P98170+Q96SW2); assay: PROTAC activity at CRBN/XIAP in human MCF7 cells assessed as induction of XIAP degradation at 0.1 to 10 uM measured after 18 hrs by western blot analysis; assay type: cell-based; details: dose 0.1-10 µM
T2 sequence (P98170 whole entry, looked up): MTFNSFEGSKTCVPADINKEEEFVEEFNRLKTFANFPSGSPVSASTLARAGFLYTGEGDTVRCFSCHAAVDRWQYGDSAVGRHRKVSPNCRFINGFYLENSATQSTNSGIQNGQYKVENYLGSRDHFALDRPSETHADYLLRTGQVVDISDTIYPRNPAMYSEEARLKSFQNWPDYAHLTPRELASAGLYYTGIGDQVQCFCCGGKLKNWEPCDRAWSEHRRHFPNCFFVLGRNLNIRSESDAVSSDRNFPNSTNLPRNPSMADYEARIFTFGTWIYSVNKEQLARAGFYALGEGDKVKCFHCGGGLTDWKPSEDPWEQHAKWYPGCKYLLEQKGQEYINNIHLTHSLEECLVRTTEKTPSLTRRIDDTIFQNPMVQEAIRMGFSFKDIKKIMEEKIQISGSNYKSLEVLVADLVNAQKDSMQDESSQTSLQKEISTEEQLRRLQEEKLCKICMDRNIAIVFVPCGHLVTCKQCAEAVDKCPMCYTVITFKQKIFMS
T2 sequence (Q96SW2 whole entry, looked up): as the sequence (Q96SW2 whole entry, looked up) above

[6] = target: Protein cereblon (Homo sapiens) (UniProt Q96SW2); assay: Induction of CRBN degradation in human MCF7 cells by western blot analysis; assay type: cell-based
Chain of Protein cereblon (Homo sapiens) (Q96SW2 whole entry): as the sequence (Q96SW2 whole entry, looked up) above

[7] = target: Baculoviral IAP repeat-containing protein 2 (Homo sapiens) (UniProt Q13490); assay: Induction of cIAP1 degradation in human MCF7 cells at 0.1 uM measured within 1 hr by western blot analysis; assay type: cell-based
[8] = target: T2, Protein cereblon/E3 ubiquitin-protein ligase XIAP (Homo sapiens); assay: PROTAC activity at CRBN/XIAP in human MCF7 cells assessed as induction of XIAP degradation at 0.1 uM measured within 1 hr by western blot analysis; assay type: cell-based
[9] = target: Baculoviral IAP repeat-containing protein 2 (Homo sapiens) (UniProt Q13490); assay: Induction of cIAP1 degradation in human MCF7 cells at 1 uM measured after 6 hrs in presence of proteasome inhibitor, MG132 by western blot analysis; assay type: cell-based
[10] = target: T2, Protein cereblon/E3 ubiquitin-protein ligase XIAP (Homo sapiens); assay: PROTAC activity at CRBN/XIAP in human MCF7 cells assessed as induction of XIAP degradation at 1 uM measured after 6 hrs in presence of proteasome inhibitor, MG132 by western blot analysis; assay type: cell-based
[11] = target: Baculoviral IAP repeat-containing protein 2 (Homo sapiens) (UniProt Q13490); assay: Induction of cIAP1 degradation in human MCF7 cells transfected with CRBN siRNA at 0.01 to 1 uM measured after 18 hrs by western blot analysis; assay type: cell-based; details: dose 0.01-1 µM
[12] = target: Baculoviral IAP repeat-containing protein 3 (Homo sapiens) (UniProt Q13489); assay: Induction of […] degradation in human MCF7 cells transfected with CRBN siRNA at 0.01 to 1 uM measured after 18 hrs by western blot analysis; assay type: cell-based; details: dose 0.01-1 µM
Chain of Baculoviral IAP repeat-containing protein 3 (Homo sapiens) (Q13489 whole entry): as the sequence (Q13489 whole entry, looked up) above

[13] = target: E3 ubiquitin-protein ligase XIAP (Homo sapiens) (UniProt P98170); assay: Induction of XIAP degradation in human MCF7 cells transfected with CRBN siRNA at 0.01 to 1 uM measured after 18 hrs by western blot analysis; assay type: cell-based; details: dose 0.01-1 µM
Chain of E3 ubiquitin-protein ligase XIAP (Homo sapiens) (P98170 whole entry): as the sequence (P98170 whole entry, looked up) above

[14] = target: T2, Protein cereblon/E3 ubiquitin-protein ligase XIAP (Homo sapiens); assay: Binding affinity to CRBN/XIAP in human HEK293T cells assessed as ternary complex formation at 1 uM measured after 6 hrs by immunoprecipitation analysis; assay type: cell-based
[15] = target: Baculoviral IAP repeat-containing protein 2 (Homo sapiens) (UniProt Q13490); assay: Induction of cIAP1 degradation in human MCF7 cells assessed as protein abundance at 1 uM measured after 4 hrs by TMT-labeling based LC-MS/MS analysis; assay type: cell-based
[16] = target: T1, Protein cereblon/Baculoviral IAP repeat-containing protein 3 (Homo sapiens); assay: PROTAC activity at CRBN/cIAP2 in human MCF7 cells at 1 uM measured after 4 hrs by TMT-labeling based LC-MS/MS analysis; assay type: cell-based
[17] = tested on: MCF7; assay: Induction of apoptosis in human MCF7 cells assessed as increase in total apoptotic cells at 1 uM measured after 48 hrs by AnnexinV-FITC/PI staining based flow cytometry; assay type: functional
[18] = tested on: MCF7; assay: Cytotoxicity against human MCF7 cells assessed as inhibition of cell growth measured after 72 hrs by CellTiter-Glo luminescent assay; assay type: functional
[19] = tested on: SK-OV-3; assay: Cytotoxicity against human SK-OV-3 cells assessed as inhibition of cell growth measured after 72 hrs by CellTiter-Glo luminescent assay; assay type: functional, cell-based
[20] = tested on: MCF7; assay: Cytotoxicity against human MCF7 cells assessed as reduction in cell viability at 1 uM measured after 24 hrs in presence of TNF-alpha by CellTiter-Glo luminescent assay; assay type: functional, cell-based
[21] = tested on: MCF7; assay: Induction of apoptosis in human MCF7 cells assessed as increase in caspase-7 cleavage at 1 uM measured after 6 hrs in presence of TNF-alpha by western blot analysis; assay type: functional, cell-based
[22] = target: T3, Protein cereblon-IAP (Homo sapiens) (UniProt P98170+Q13489+Q13490+Q96SW2); assay: PROTAC activity at CRBN/IAP in human MCF7 cells assessed as inhibition of TNFalpha-induced NFkappaB activation by measuring decrease in IKKalpha/beta phosphorylation at 0.1 uM pretreated for 2 hrs followed by stimulation with TNF-alpha for 3 mins by western blot analysis; assay type: cell-based; details: time 123.0 min
T3 sequence (P98170 whole entry, looked up): as above
T3 sequence (Q13489 whole entry, looked up): as the sequence (Q13489 whole entry, looked up) above
T3 sequence (Q13490 whole entry, looked up): as the sequence (Q13490 whole entry) above
T3 sequence (Q96SW2 whole entry, looked up): as the sequence (Q96SW2 whole entry, looked up) above

[23] = target: T3, Protein cereblon-IAP (Homo sapiens); assay: PROTAC activity at CRBN/IAP in human MCF7 cells assessed as inhibition of TNFalpha-induced NFkappaB activation by measuring decrease in IkBalpha phosphorylation at 0.1 uM pretreated for 2 hrs followed by stimulation with TNF-alpha for 3 mins by western blot analysis; assay type: cell-based; details: time 123.0 min
[24] = target: T3, Protein cereblon-IAP (Homo sapiens); assay: PROTAC activity at CRBN/IAP in human MCF7 cells assessed as inhibition of TNFalpha-induced NFkappaB activation by measuring decrease in p65 phosphorylation at 0.1 uM pretreated for 2 hrs followed by stimulation with TNF-alpha for 3 mins by western blot analysis; assay type: cell-based; details: time 123.0 min
[25] = tested on: MCF7; assay: Inhibition of TNFalpha-induced cytokine secretion in human MCF7 cells assessed as decrease in TNFalpha level at 0.1 uM measured after 4 hrs by ELISA; assay type: functional, cell-based
[26] = tested on: MCF7; assay: Inhibition of TNFalpha-induced cytokine secretion in human MCF7 cells assessed as decrease in IL-6 level at 0.1 uM measured after 4 hrs by ELISA; assay type: functional, cell-based
[27] = tested on: MCF7; assay: Inhibition of TNFalpha-induced cytokine mRNA expression in human MCF7 cells assessed as decrease in TNF-alpha mRNA level by quantitative real-time PCR analysis; assay type: functional, cell-based
[28] = tested on: MCF7; assay: Inhibition of TNFalpha-induced cytokine mRNA expression in human MCF7 cells assessed as decrease in IL-6 mRNA level by quantitative real-time PCR analysis; assay type: functional, cell-based
[29] = tested on: MDA-MB-231; assay: Inhibition of TNFalpha-induced cell migration in human MDA-MB-231 cells at 0.1 uM measured after 24 hrs in presence of TNFalpha by transwell assay; assay type: functional, cell-based
[30] = tested on: MDA-MB-231; assay: Inhibition of TNFalpha-induced cell invasion in human MDA-MB-231 cells at 0.1 uM measured after 24 hrs in presence of TNFalpha by transwell assay; assay type: functional, cell-based
[31] = tested on: MDA-MB-157; assay: Inhibition of TNFalpha-induced cell migration in human MDA-MB-157 cells at 0.1 uM measured after 24 hrs in presence of TNFalpha by transwell assay; assay type: functional, cell-based
[32] = tested on: MDA-MB-157; assay: Inhibition of TNFalpha-induced cell invasion in human MDA-MB-157 cells at 0.1 uM measured after 24 hrs in presence of TNFalpha by transwell assay; assay type: functional, cell-based
[33] = tested on: MCF7; assay: Inhibition of TNFalpha-induced E-cadherin protein expression in human MCF7 cells by western blot analysis; assay type: functional, cell-based

SMILES: CN[C@@H](C)C(=O)N[C@H](C(=O)N1Cc2cc(OCCCCCCCCNC(=O)C3CN(c4ccc5c(c4)C(=O)N(C4CCC(=O)NC4=O)C5=O)C3)ccc2C[C@H]1C(=O)N[C@@H]1CCCc2ccccc21)C(C)(C)C (stereo partly drawn)
- Activity [1]: 90%
- Activity [2]: 87%
- Activity [3]: 90%
- Activity [4]: Active
- Activity [5]: Active
- Activity [6]: inactive
- Activity [7]: > 90%
- Activity [8]: > 90%
- Activity [9]: inactive
- Activity [10]: inactive
- Activity [11]: Active
- Activity [12]: inactive
- Activity [13]: inactive
- Activity [14]: Active
- fold change (FC) [15]: > 2
- Activity [16]: Active
- Activity [17]: 46%
- GI50 [18]: 0.396 µM
- Activity [19]: Active
- Activity [20]: Active
- Activity [21]: Active
- Activity [22]: Active
- Activity [23]: Active
- Activity [24]: Active
- inhibition [25]: Active
- inhibition [26]: Active
- inhibition [27]: Active
- inhibition [28]: Active
- inhibition [29]: Active
- inhibition [30]: Active
- inhibition [31]: Active
- inhibition [32]: Active
- inhibition [33]: Active
